Measurements taken from publication PMC6176987, “Correction of cognitive deficits in mouse models of Down syndrome by a pharmacological inhibitor of DYRK1A” (Disease Models & Mechanisms, 2018).

Key:
DYRK1A [1] = tested on: DYRK1A; set-up: method as in Khan et al., 2006; Yang et al., 2009; details: ref Khan et al., 2006; Yang et al., 2009; cited from earlier work
vimentin = tested on: vimentin; set-up: method as in Khan et al., 2006; Yang et al., 2009; details: ref Khan et al., 2006; Yang et al., 2009; cited from earlier work
laminin receptor = target: laminin receptor; set-up: method as in Khan et al., 2006; Yang et al., 2009; details: ref Khan et al., 2006; Yang et al., 2009; cited from earlier work
CLK2 = CLK2 (Mus musculus, UniProt O35491); assay: Recombinant protein kinase assay, CLK2; format: biochemical; details: 15 µM ATP; read-out: IC50 CLK2
Chain of CLK2 (O35491 whole entry): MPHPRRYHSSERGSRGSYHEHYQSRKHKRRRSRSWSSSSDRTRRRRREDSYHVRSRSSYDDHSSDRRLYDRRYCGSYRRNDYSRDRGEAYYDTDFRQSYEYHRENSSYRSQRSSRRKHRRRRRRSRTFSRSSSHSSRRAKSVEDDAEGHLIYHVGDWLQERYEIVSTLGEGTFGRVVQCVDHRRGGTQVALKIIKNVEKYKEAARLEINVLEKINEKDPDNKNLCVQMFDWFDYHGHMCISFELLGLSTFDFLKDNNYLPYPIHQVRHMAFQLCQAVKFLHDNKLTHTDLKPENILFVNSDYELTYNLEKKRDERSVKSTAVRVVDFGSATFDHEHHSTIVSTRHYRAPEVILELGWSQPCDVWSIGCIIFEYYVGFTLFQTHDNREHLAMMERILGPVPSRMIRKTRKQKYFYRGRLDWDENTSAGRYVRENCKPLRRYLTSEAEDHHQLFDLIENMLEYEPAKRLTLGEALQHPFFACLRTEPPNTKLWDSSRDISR

DYRK1A [2] = target: DYRK1A (Homo sapiens, UniProt Q13627); assay: Recombinant protein kinase assay, DYRK1A; format: biochemical; details: 15 µM ATP
CK2 = target: T1, CK2 (Homo sapiens, UniProt P68400); assay: Recombinant protein kinase assay, CK2; format: biochemical; details: 15 µM ATP
T1 construct: Cochet
T1 sequence (P68400 whole entry): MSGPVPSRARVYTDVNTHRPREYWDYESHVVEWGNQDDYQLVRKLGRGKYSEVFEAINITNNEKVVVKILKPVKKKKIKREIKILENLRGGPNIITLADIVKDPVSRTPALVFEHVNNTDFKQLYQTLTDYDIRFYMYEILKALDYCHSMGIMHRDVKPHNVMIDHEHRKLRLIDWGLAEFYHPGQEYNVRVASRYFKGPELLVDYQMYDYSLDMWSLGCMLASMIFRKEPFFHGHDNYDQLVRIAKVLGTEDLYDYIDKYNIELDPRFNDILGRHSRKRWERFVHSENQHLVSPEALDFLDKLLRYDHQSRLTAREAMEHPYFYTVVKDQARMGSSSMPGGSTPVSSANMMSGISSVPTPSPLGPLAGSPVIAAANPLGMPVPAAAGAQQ

CDK2/cyclin A = CDK2/cyclin A (Homo sapiens, UniProt P24941); assay: Recombinant protein kinase assay, CDK2/cyclin A; format: biochemical; details: 15 µM ATP
CLK3 = CLK3 (Mus musculus, UniProt O35492); assay: Recombinant protein kinase assay, CLK3; format: biochemical; details: 15 µM ATP; read-out: IC50 CLK3
Chain of CLK3 (O35492 whole entry): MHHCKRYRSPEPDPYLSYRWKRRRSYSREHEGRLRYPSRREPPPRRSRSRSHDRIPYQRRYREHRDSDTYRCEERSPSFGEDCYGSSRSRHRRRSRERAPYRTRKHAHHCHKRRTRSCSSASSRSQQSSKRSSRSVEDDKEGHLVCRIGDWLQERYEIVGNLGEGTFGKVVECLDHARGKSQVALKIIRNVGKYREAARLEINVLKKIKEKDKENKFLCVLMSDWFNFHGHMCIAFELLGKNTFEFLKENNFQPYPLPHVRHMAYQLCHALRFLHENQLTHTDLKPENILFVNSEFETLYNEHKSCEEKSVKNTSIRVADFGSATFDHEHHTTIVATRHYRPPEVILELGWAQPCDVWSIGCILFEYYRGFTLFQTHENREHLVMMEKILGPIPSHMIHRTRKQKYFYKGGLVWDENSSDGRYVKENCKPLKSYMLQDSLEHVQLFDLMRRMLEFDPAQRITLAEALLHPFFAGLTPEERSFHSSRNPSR

CDK9/cyclin T = target: T2, CDK9/cyclin T (Homo sapiens, UniProt P50750); assay: Recombinant protein kinase assay, CDK9/cyclin T; format: biochemical; details: 15 µM ATP
T2 construct: made in house; host or cells: insect cells
T2 sequence (P50750 whole entry): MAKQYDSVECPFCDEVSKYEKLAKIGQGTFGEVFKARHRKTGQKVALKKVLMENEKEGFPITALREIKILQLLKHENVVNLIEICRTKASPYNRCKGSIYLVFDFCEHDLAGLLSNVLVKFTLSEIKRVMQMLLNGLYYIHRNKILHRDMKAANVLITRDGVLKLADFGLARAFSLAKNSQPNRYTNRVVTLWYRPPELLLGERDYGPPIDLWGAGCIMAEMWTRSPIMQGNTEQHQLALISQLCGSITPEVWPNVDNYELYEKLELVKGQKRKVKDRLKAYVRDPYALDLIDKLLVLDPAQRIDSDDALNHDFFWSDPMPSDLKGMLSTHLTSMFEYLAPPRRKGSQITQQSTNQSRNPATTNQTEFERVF
T2 sequence (O60563 whole entry partner): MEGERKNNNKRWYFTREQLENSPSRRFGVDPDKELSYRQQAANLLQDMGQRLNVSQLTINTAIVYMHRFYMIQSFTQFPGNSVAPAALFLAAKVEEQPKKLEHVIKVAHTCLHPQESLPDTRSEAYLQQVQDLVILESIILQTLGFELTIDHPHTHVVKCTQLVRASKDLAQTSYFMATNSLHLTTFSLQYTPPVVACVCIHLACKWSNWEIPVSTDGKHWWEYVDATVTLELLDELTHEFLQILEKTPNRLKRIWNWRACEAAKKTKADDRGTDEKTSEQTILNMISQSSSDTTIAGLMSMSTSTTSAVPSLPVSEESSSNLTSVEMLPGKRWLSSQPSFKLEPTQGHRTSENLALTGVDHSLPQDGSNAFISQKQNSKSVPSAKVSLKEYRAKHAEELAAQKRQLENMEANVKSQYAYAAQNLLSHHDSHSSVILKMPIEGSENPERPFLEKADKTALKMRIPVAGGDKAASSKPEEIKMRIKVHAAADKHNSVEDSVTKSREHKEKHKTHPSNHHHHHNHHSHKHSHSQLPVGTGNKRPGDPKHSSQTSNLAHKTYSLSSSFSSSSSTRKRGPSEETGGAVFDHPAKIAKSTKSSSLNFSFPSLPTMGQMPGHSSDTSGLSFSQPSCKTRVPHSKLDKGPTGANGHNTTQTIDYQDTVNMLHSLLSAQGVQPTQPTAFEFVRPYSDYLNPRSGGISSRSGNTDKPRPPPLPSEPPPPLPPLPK

CDK5/p25 = CDK5/p25 (Homo sapiens, UniProt Q00535); assay: Recombinant protein kinase assay, CDK5/p25; format: biochemical; details: 15 µM ATP
Chain of CDK5/p25 (Q00535 whole entry): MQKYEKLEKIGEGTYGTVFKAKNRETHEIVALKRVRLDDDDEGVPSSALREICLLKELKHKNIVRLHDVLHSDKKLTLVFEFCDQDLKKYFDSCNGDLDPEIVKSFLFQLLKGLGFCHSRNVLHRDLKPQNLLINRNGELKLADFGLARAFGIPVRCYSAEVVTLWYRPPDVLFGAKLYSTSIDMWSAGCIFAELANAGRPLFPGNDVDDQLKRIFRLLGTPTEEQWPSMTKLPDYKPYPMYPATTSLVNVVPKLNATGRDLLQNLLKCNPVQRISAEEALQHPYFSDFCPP
Chain of CDK5/p25 (Q15078 99-307 partner limits assumed): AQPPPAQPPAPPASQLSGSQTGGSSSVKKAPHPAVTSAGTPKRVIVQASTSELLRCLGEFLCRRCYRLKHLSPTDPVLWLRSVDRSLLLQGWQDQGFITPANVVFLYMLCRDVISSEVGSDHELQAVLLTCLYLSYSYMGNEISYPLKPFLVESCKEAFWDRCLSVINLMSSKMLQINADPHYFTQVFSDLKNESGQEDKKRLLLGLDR

DYRK3 = DYRK3 (Homo sapiens, UniProt O43781); assay: Recombinant protein kinase assay, DYRK3; format: biochemical; details: 15 µM ATP
Chain of DYRK3 (O43781 whole entry): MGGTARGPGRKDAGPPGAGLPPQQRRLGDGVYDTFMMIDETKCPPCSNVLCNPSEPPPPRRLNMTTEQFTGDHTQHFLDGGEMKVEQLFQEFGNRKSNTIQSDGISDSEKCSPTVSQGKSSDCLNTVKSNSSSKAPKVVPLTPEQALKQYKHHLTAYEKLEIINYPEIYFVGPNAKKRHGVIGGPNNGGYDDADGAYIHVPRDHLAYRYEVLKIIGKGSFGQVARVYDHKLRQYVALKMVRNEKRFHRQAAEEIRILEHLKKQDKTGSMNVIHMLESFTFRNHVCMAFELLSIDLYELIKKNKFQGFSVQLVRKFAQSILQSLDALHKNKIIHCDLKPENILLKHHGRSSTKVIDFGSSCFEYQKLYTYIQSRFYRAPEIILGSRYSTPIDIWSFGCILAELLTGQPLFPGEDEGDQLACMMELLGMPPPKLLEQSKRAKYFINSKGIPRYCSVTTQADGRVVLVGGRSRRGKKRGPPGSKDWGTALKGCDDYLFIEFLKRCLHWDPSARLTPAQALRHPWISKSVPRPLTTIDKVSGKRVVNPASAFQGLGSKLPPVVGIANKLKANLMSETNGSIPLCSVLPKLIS

Tg(Dyrk1a) mice = assay: Novel object recognition (NOR) test in Tg(Dyrk1a) mice; format: in vivo, mouse; details: daily i.p. treatment for 19 days
DYRK1A [3] = target: T3, DYRK1A (Mus musculus, UniProt Q61214); assay: Brain DYRK1A catalytic activity after treatment, Tg(Dyrk1a) mice; format: in vivo; details: 19 days of treatment
T3 construct: DYRK1A was purified from brain extracts by immunoprecipitation; from tissue; host or cells: mouse brain (wt, Tg(Dyrk1a), Ts65Dn)
Method: Protein kinase assays to measure the catalytic activity of DYRK1A in the brains of the animals treated with or without drugs were performed as follows: frozen half brains were homogenized in lysis buffer (1.2 ml/half brain) using Precellys® homogenizer tubes. After centrifugation at 2800 g for 2×15 s, 1 mg brain extract was incubated with 2 µg DYRK1A (H00001859 M01, Interchim) or GSK3-β (MBS8508391, Emelca Bioscience, France) antibodies at 4°C for 1 h under gentle rotation. Then, 20 µl protein G agarose beads (Thermo Fisher Scientific, France), previously washed three times with bead buffer (50 mM Tris pH 7.4, 5 mM NaF, 250 mM NaCl, 5 mM EDTA, 5 mM EGTA, 0.1% Nonidet P-40 and protease inhibitor cocktail from Roche, France), were added to the mix and gently rotated at 4°C for 30 min. After a 1 min spin at 10,000 g and removal of the supernatant, the pelleted immune complexes were washed three times with bead buffer, and a last time with Buffer C (60 mM β-glycerophosphate, 30 mM p-nitrophenolphosphate, 25 mM Mops pH 7.2, 5 mM EGTA, 15 mM MgCl2, 2 mM dithiothreitol, 0.1 mM sodium orthovanadate, 1 mM phenylphosphate, protease inhibitor cocktail). DYRK1A or GSK-3 immobilized on beads were assayed in buffer C as described in the Supplementary Materials and Methods with Woodtide ([…]) (1.5 µg/assay) or GSK3-tide ([…]pSED-EEE, where pS stands for phosphorylated serine) as substrates.

DYRK1B = DYRK1B (Homo sapiens, UniProt Q9Y463); assay: Recombinant protein kinase assay, DYRK1B; format: biochemical; details: 15 µM ATP
CLK1 = CLK1 (Mus musculus, UniProt P22518); assay: Recombinant protein kinase assay, CLK1; format: biochemical; details: 15 µM ATP; read-out: IC50 CLK1
DYRK2 = DYRK2 (Homo sapiens, UniProt Q92630); assay: Recombinant protein kinase assay, DYRK2; format: biochemical; details: 15 µM ATP
Chain of DYRK2 (Q92630 whole entry): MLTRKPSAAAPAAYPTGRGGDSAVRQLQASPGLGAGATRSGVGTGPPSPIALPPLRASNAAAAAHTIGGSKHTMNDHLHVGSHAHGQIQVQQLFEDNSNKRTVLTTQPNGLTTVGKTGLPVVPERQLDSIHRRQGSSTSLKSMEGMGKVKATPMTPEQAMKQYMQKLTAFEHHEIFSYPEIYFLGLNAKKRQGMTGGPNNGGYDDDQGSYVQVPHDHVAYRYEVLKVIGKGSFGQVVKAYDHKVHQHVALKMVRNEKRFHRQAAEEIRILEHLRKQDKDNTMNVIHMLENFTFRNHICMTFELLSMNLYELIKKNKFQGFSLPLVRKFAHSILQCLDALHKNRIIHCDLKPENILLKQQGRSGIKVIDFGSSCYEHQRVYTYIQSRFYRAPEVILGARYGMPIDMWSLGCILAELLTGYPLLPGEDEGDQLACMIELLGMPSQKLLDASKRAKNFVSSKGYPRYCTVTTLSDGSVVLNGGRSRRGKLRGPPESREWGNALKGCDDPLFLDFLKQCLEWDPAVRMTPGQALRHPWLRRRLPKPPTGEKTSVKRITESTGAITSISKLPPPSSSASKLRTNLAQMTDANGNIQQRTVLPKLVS

CLK4 = CLK4 (Mus musculus, UniProt O35493); assay: Recombinant protein kinase assay, CLK4; format: biochemical; details: 15 µM ATP
Chain of CLK4 (O35493 whole entry): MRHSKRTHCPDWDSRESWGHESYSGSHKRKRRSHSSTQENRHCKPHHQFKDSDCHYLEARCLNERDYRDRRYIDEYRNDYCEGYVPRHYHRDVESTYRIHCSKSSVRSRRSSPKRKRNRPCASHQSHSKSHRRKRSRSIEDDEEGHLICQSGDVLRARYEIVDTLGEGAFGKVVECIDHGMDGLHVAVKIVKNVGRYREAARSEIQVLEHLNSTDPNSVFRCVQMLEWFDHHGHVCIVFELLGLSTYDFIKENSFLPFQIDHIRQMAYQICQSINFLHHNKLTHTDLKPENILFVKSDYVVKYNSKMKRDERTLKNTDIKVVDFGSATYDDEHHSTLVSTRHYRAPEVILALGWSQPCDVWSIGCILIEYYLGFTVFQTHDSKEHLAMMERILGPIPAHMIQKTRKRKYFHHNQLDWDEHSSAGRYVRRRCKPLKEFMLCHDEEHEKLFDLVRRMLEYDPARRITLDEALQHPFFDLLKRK

PIM1 = PIM1 (Homo sapiens, UniProt P11309); assay: Recombinant protein kinase assay, PIM1; format: biochemical; details: 15 µM ATP
Chain of PIM1 (P11309 whole entry): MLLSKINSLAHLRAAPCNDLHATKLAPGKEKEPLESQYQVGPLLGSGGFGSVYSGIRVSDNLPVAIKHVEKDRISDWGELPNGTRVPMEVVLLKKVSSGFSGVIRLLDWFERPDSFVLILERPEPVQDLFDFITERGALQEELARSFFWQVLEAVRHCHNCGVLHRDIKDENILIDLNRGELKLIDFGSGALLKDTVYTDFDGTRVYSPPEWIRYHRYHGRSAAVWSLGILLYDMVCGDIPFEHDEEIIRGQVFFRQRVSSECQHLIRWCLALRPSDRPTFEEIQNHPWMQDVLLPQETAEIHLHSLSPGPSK

Row | IC50 (DYRK1B) [µM] | IC50 (CLK1) [µM] | IC50 (DYRK2) [µM] | IC50 (CLK4) [µM] | IC50 (PIM1) [µM] | Structure (SMILES) | IC50 (DYRK1A [1]) [µM] | IC50 (vimentin) [µM] | IC50 (laminin receptor) [µM] | IC50 (CLK2) [µM] | IC50 (DYRK1A [2]) [µM] | IC50 (CK2) [µM] | IC50 (CDK2/cyclin A) [µM] | IC50 (CLK3) [µM] | IC50 (CDK9/cyclin T) [µM] | IC50 (CDK5/p25) [µM] | IC50 (DYRK3) [µM] | Behavioural effect in NOR test (Tg(Dyrk1a) mice) | Tg(Dyrk1a) brain DYRK1A activity (DYRK1A [3])
1 | – | – | – | – | – | O=C(O[C@@H]1Cc2c(O)cc(O)cc2O[C@@H]1c1cc(O)c(O)c(O)c1)c1cc(O)c(O)c(O)c1 [EGCG, epigallocatechin gallate] | 0.33 | 0.003 | 0.04 | – | – | – | – | – | – | – | – | – | –
2 | – | – | – | – | – | O=C1NC(Nc2ccccc2)=N/C1=C\c1ccc2c(c1)OCCCO2 [L43] | – | – | – | > 10 | 7.4 | > 10 | > 10 | > 10 | > 10 | > 10 | > 10 | lack of effects | did not reduce
3 | 0.02 | 0.012 | 0.015 | 0.012 | 0.21 | COc1cc(/C=C2\N=C(Nc3ccc(N4CCN(C)CC4)cc3)NC2=O)ccc1O [L99] | – | – | – | 0.03 | 0.014 | > 10 | > 10 | 0.7 | 0.32 | > 10 | 0.01 | beneficial behavioural effects | –
